Laboratory results published in patent US9326517B2, “Synergistic combination of a chlorotoluron compound and IPBC for dry film protection” (Dow Global Technologies LLC, priority 2013, dated 2016).

Assays:
[1] = system: Chlorella sp. ATCC 7516; experiment: Algal efficacy testing of dry paint films (modified ASTM 5589, 6-well plates); type: cell-based; conditions: 3 weeks; for Total conc: total biocide concentration in paint used as minimum inhibitory concentration for SI, pass level ≧75% inhibition
Experimental: Slurries containing 33% antimicrobial active ingredient (chlorotoluron) were post added to a white, acrylic/silicone based outdoor paint free of biocides to give a total active ingredient concentration of 10000 and 1000 ppm respectively. ROCIMA™ 250 (40% IPBC) was post added to a white, acrylic/silicone based outdoor paint free of biocides to give a total active ingredient concentration of 10000 and 1000 ppm respectively. These paints were then diluted with an antimicrobial free acrylic/silicone based paint and mixed to prepare targeted concentrations of antimicrobial compounds for the testing. The total biocides concentrations tested were 125, 250, 500, 1000, 2000 and 5000 ppm. After biocides addition or dilution, the paints were mixed 90 seconds with the horse power shaker (AXEL 75M3372/Agitateur SO-10MI) until uniformity was achieved. Paints containing different antimicrobial compounds at the same levels were mixed together in order to obtain the desired ratio of antimicrobial compounds. After one day, the paints were applied to Schleicher & Schuell filter paper at 280 μm wet film thickness and dried for 3 days at room temperature avoiding direct exposure to sunlight. Square discs (1.6 cm×1.6 cm) were cut out from each panel and were used as the substrate for algal efficacy tests. This sample size allowed for an agar border when the sample disc was placed into the well of the test plate.
Algal efficacy was tested according to modified ASTM 5589 which is a standard accelerated test method for determining resistance of various coatings (including paints) to algal defacement. To accommodate for high-throughput screening, this method was scaled down from petri dishes to 6-well plates. Bold Modified Basal Freshwater Nutrient Solution was used as growth medium. A single coated filter paper coupon was placed with a pair of sterile forceps at the center of the agar plug (on top) with the painted surface facing upwards. Algal inoculum was prepared by mixing equal concentrations (1×10^6 cfu/ml) and equal volumes of exponentially growing algae cultures.
Each well that contains a tested coupon was inoculated with 1750 μl of algal suspensions (1×10^6 cfu/ml) making sure that the whole surface (paint film as well as the agar surrounding it) was evenly covered. The plates were incubated at room temp (21° C.-25° C.) with cyclic exposure to light and dark phases, for a period of three weeks. The total area inhibited was evaluated at the end of each week according to percent area covered in 5% increments.
At the end of the three week incubation period, the samples were scored for percent inhibition regarding color intensity compared to the blank sample.
The Synergy Index calculation was performed as follows.
The SI is calculated based on F. C. Kull et. […]

[2] = cited from earlier work

Structure (SMILES)	Total conc [1] [ppm]	inhibition at 2000 ppm ([1]; 504 h, total conc 2000 ppm in paint) [%]	inhibition at 1000 ppm ([1]; 504 h, total conc 1000 ppm in paint) [%]	solubility in water [2]
CCCCNC(=O)OCC#CI [IPBC, 3-Iodo-2-propynyl butylcarbamate]	2000	70	–	–
Cc1ccc(NC(=O)N(C)C)cc1Cl [Chlorotoluron, N′-(3-chloro-4-methylphenyl)-N,N-dimethylurea]	1000	–	100	relatively low
